The values below come from patent US12168010B2, “Use of co-enzyme antagonists to slow metabolism” (priority 2020, dated 2024).

Entries after “also recorded” stand apart in the source; their conditions may differ.

Series [1] is described as follows: Study in dogs on the conversion of B-OT to OT (toxicokinetics of OT in plasma, tolerability). It counts as in vivo, dogs (Beagle breed). Here is the method: FIG. 1: Change in individual plasma concentrations of OT with time (over 24 hours) in male beagle dogs. The y-axis indicates—the plasma concentration in ng/ml. • On the x-axis the time is indicated in hours (h=hours) • (a) Change in individual plasma concentrations on day 1 after administration of a single dose of B-OT in an amount of 1 mg/kg/day. • The symbols mean: • —⋄—=dog no. 3001 • —□—=dog no. 3002 • (b) Change in individual plasma concentrations on day 1 after administration of a single dose of B-OT in an amount of 0.5 mg/kg/day. • The symbols mean: • —Δ—=dog no. 4001 • —∘—=dog no. 4002 • (c) Change in individual plasma concentrations at day 7 after seven days of administration of single doses of B-OT in an amount of 0.5 mg/kg/day. • The symbols mean: • —Δ—=dog no. 4001 • —∘—=dog no. […] • (d) Change in mean plasma concentrations on day 1 after administration of a single dose of B-OT at 1 mg/kg/day, and on day 1 and day 7 after daily administration of single doses of B-OT in an amount of 0.5 mg/kg/day. • The symbols mean: • —□—=group 3, 1.0 mg/kg/day, day 1 • —Δ—=Group 4, 0.5 mg/kg/day, day 1. • —∘—=group 4, 0.5 mg/kg/day, day 7.
Male and female dogs (Beagle breed) were administered B-OT (benfo-oxythiamine) orally once daily for periods of one to seven days in amounts of 1 mg/kg/day or 0.5 mg/kg/day.
The toxicokinetics of the active metabolite OT (oxythiamine) was determined in plasma samples obtained on the first day “Day 1” and on the seventh day “Day 7” after the start of administration. The measurement results obtained are shown graphically in FIGS. 1 (a) to (d).

The conditions of series [2]: rat, in vivo, po. The source says: This means that there is a very efficient cleavage of B-OT into OT, and a high percentage amount of OT is present in the blood. Thus, B-OT is a pharmacokinetically good and orally applicable substance that allows good and efficient delivery of OT. Since OT usually must/should be administered intraperitoneally, the oral administration of B-OT represents an important advantage in comparison. The bioavailability and absorption of B-OT is also more suitable for human therapy due to the more lipophilic basic structure of B-OT compared to OT. Compared to OT, B-OT is thus better, easier and safer to use as a drug.

In the next series the test system is SARS-CoV-2. The series can be described thus: Curative trials: B-OT in addition to standard therapy in patients with covid-19 pneumonia.
Series [3] can be described thus: Change in pulse beat (heart rate) in dogs after administration of B-OT. It counts as in vivo. The settings on record: over 24 hours, B-OT 0.05, 0.15, 0.5 mg/kg/day. The protocol: FIG. 2: Graph showing the change in plus beat with time in dogs after administration of different amounts (doses) of B-OT. On the y-axis, the pulse beat (heart rate) is given in beats per minute (bpm). On the x-axis, the time is given in hours. • The symbols mean: • —●=0 mg/kg/day—Benfooxythiamine=0 mg/kg/day—B-OT • —□—=0.05 mg/kg/day—Benfooxythiamine=0.05 mg/kg/day—B-OT • —Δ—=0.15 mg/kg/day—Benfooxythiamine=0.15 mg/kg/day—B-OT • −⋄—=0.5 mg/kg/day—Benfooxythiamine=0.5 mg/kg/day—B-OT
By slowing down (throttling) the metabolism, GSSV also causes a reduction in the energy released with it. The body attempts to compensate for the lower energy release by increasing the pulse rate in order to transport more oxygen into the body so that more energy can be released as a result. The increase in the patient's pulse beat is an indication and a suitable parameter that GSSV has inhibited energy release and to what extent. If there is a sharp increase in pulse rate, e.g., in a person a pulse rate above 90, countermeasures may be necessary to increase energy release again.

The nature of series [4]: Comparison of B-OT amounts per kg body weight in dogs and humans versus rats and mice. It is filed as in vivo.
The nature of series [5]: In vivo pharmacokinetics: oxythiamine in the brain after B-OT administration.
Where [6] appears, read: all patients with additional B-OT therapy.

Regarding `C/C(=C(/CCOP(=O)(O)O)SC(=O)c1ccccc1)N(C=O)Cc1cnc(C)[nH]c1=O` [B-OT, benfo-oxythiamine], in series [1] (dog, in vivo), the “behavior and physical condition” value is “No relevant abnormalities”; the body weight entry is “no significant variations in body weight”. Moreover, the “systemic exposure to OT / B-OT” value in series [1] (dog, in vivo, po) is “exposed to the active metabolite OT but not to the preform (prodrug) B-OT”. The tolerability of treatment result in series [1] (dogs, oral B-OT 1 or 0.5 mg/kg/day, one to seven days) is listed as “well tolerated”. Besides, in series [2], the “B-OT (prodrug form) measurable in the blood” value is given as 0% and the “share of total amount of B-OT administered measurable in the blood in the form of oxythiamine (OT)” value amounted to 44%. Further, in the series with SARS-CoV-2 (after 7 days of B-OT therapy versus before), the “viral pneumonia infiltrates in lung computed tomography” value is “marked decrease in infiltrates; also recorded: marked decrease of infiltrates; also recorded: significant decrease in the previously pronounced infiltrates”. Further, in the series on SARS-CoV-2 (setting [6]), the “C-reactive Protein (CRP)” value is recorded as “significant reduction” and the “Interleukin-6 (IL-6)” value is listed as “significant reduction”. For the same molecule, the required inpatient stay entry in the series with SARS-CoV-2 (compared with the overall collective of more than 700 patients) is recorded as “on average one week less”. Moreover, the “side effects attributable to B-OT” value in the series with SARS-CoV-2 (four covid-19 pneumonia patients, 6 mg B-OT per day perorally for seven days) is “None of the patients showed side effects”. Further, the “need for intensive care” value in the series on SARS-CoV-2 (four covid-19 pneumonia patients, 6 mg B-OT per day perorally for seven days plus standard therapy) is given as “none of the four patients required intensive care”. Moreover, the “need for respiratory support therapy beyond nasal cannula or mask oxygen insufflation” value with SARS-CoV-2 (four patients with additional B-OT therapy, versus overall collective of more than 700 patients) was “none of the four patients”. The “lung computed tomography at follow-up” value with SARS-CoV-2 (patient 2, one month after the end of therapy) is given as “stable findings”. Besides, the “pulse beat (heart rate)” value in series [3] is “significant increase in pulse beat”. For the same molecule, the “reaction of dogs and humans to B-OT amounts per kg applied to rats and mice” value in series [4] (rodent amounts per kilogram body weight used in dogs and humans) is “in many cases led to death”. The “dose usable in humans and dogs compared to published amounts used in rats and mice” value in series [4] (to avoid serious, sometimes fatal, courses) is listed as “approximately two hundredfold lower dose”.

Consider `Cc1ncc(C[n+]2csc(CCO)c2C)c(=O)[nH]1` [OT, oxythiamine], for which, in series [5], the “oxythiamine in the brain after B-OT is administered” value is “present in significant amounts in the brain”. Besides, in series [1] (Beagle dogs, oral B-OT, all applied doses), the “time of maximum OT plasma concentration (Tmax) after administration of B-OT” value was “between one and two hours”. The “systemic exposure to OT / B-OT” value in series [1] (dogs treated orally with B-OT) is on record as “achieved in all animals”. Also, the “increase in plasma concentrations of oxythiamine (OT) with B-OT dose” value in series [1] (dogs, stepwise increase of B-OT dose from 0.2 mg/kg to 1.0 mg/kg) is “approximately linearly proportional to the increase in dose”. Moreover, the “increase in plasma OT based on dose-normalized Cmax and partial AUC” value in series [1] (male beagle dogs, oral B-OT single doses, over the range of applied doses) is on record as “less than dose-proportional increase”.
